Assay results from patent publication US11400107B2, “Cancer treatments” (NuCana plc, priority 2016, dated 2022).
“Also recorded” adds a separate entry of the source.

System: advance progressive cancers refractory to, or relapsed on, all conventional therapies
Assay: ProGem1 dose escalation clinical study of NUC-1031
Type: in vivo, human
Set-up: CA125 level: unit not given here
From the text: The following data were generated in clinical studies of NUC-1031 in human patients with advance progressive cancers that are refractory to, or have relapsed on, all conventional therapies that have been used to date. The results clearly illustrate the ability of NUC-1031 to successfully treat refractory cancers.
Although the primary objectives of the dose escalation part of the study were to determine the Recommended Phase II Dose (RP2D) and safety profile, secondary objectives included determining the PK profile, however effective treatment of patients with a range of refractory cancers has also been observed as part of this study.
A total of 68 patients have been entered into this dose escalation study, of which 49 were evaluable for clinical response in that they have received at least 2 Cycles of NUC-1031 and were therefore eligible for a RECIST 1.1 assessment.
NUC-1031 was administered as a 5 to 30 minute intravenous slow bolus injection. • Schedule A: NUC-1031 was administered on days 1, 8, 15 of a 4 weekly Cycle. • Schedule B: NUC-1031 was administered on days 1, 5, 8, 12, 15, 19, of a 4 weekly Cycle. Evaluable Patients [n=49]
Evaluable patients were patients that received ≥2 Cycles of NUC-1031 and were therefore eligible for a RECIST 1.1 assessment at the end of Cycle 2. Where the disease response duration, measured in months, is followed by a “+” this indicates ongoing disease control as of the latest cut-off date.

[1] = Patient 040, cholangiocarcinoma, 1,000 then 900 mg/m^2 weekly
[2] = Patient 041, breast cancer, 900 then 825 mg/m^2 weekly
[3] = Patient 043, ovarian cancer, 900 then 750 mg/m^2 weekly
[4] = Patient 044, lung cancer, 900 then 825 mg/m^2 weekly
[5] = Patient 046, adrenal carcinoma, 1,000, 900, 750, then 625 mg/m^2 weekly
[6] = Patient 048, ovarian cancer (granulosa cell tumour), 1,000 reduced stepwise to 625 mg/m^2 weekly
[7] = Patient 052 (204), oesophageal cancer, 900 then 825 mg/m^2 weekly
[8] = Patient 057 (209), ovarian cancer, 900, 825, then 750 mg/m^2 weekly
[9] = Patient 058 (210), lung cancer, 825 then 750 mg/m^2 weekly
[10] = Patient 059 (211), cervical cancer, 825, 750, then 625 mg/m^2 weekly
[11] = Patient 061 (213), colorectal cancer, 825 mg/m^2 weekly
[12] = Patient 063 (215), ovarian cancer, 825, 750, then 625 mg/m^2 weekly
[13] = evaluable patients n = 49, RECIST 1.1

C[C@H](NP(=O)(OC[C@H]1O[C@@H](n2ccc(N)nc2=O)C(F)(F)[C@@H]1O)Oc1ccccc1)C(=O)OCc1ccccc1 (stereo partly drawn) [NUC-1031, 2′-deoxy-2′,2′-difluoro-D-cytidine-5′-O-[phenyl (benzoxy-L-alaninyl)] phosphate]
Best response to RECIST [1]: Stable Disease
Duration of response to RECIST [1]: 4 months
Tumour volume (Patient 040, cholangiocarcinoma, end of Cycle 2 CT scan (85 at base)): 82.1
CA19.9 level (Patient 040, cholangiocarcinoma, on 4th June (664 at baseline)): 155
Adverse events (grade) (Patient 041, breast cancer, 900 mg/m^2 weekly, Cycle 3): fatigue (G3)
Best response to RECIST [2]: Stable Disease
Duration of response to RECIST [2]: 4 months
CA 15.3 tumour marker (Patient 041, breast cancer, at C2 (726 at base)): 845
CA 15.3 tumour marker (Patient 041, breast cancer, on 19 May 2014 (726 at base)): 824
Best response to RECIST (Patient 042, cholangiocarcinoma, 900 mg/m^2 weekly): Progressive Disease
Adverse events (grade) (Patient 042, cholangiocarcinoma, 900 mg/m^2 weekly, days 3-5 following study drug): delayed onset fatigue (G2)
Reduction in tumour volume of primary target lesion (Patient 042, cholangiocarcinoma, end of Cycle 2 CT scan): 9%
Adverse events (grade) [3]: delayed onset fatigue (G2); also recorded: Leg oedema developed to G3
Best response to RECIST [3]: Stable Disease
Duration of response to RECIST [3]: 13 months
CA125 level (Patient 043, ovarian cancer, beginning of Cycle 2 (1.099 at baseline as printed)): 783
Reduction in tumour volume from baseline (Patient 043, ovarian cancer, end of Cycle 6 CT scan): 10%
CA125 level (Patient 043, ovarian cancer, on 15th July (1,099 at baseline)): 910
Volume of fluid drained from the pleural effusion (Patient 043, ovarian cancer, on treatment (was 300 ml per week)): 150 ml per week
Adverse events (grade) (Patient 044, lung cancer, 900 mg/m^2 weekly): G3 lung infection
Best response to RECIST [4]: Stable Disease
Duration of response to RECIST [4]: 5 months
Reduction in tumour volume (Patient 044, lung cancer, end of Cycle 2 CT scan): 10%
Best response to RECIST [5]: Stable Disease
Duration of response to RECIST [5]: 11 months
Adverse events (grade) (Patient 046, adrenal carcinoma, Cycle 1 at 1,000 mg/m^2, following Cycle 8 D1 at 900 mg/m^2): delayed onset fatigue, nausea and vomiting (all G3); also recorded: neutropenia (G2)
Reduction in tumour volume from baseline (Patient 046, adrenal carcinoma, end of Cycle 6 CT scan): 12.6%
Best response to RECIST [6]: Stable Disease
Duration of response to RECIST [6]: 8 months
inhibin B (Patient 048, ovarian cancer, August (1,038 prior to study entry)): 1148
inhibin B (Patient 048, ovarian cancer, July 2014 (1,038 prior to study entry)): 1,106
inhibin B (Patient 048, ovarian cancer, September (1,038 prior to study entry)): 1053
Adverse events (grade) (Patient 048, ovarian cancer, following Cycle 1 Day 1 at 1,000 mg/m^2, neutropenia (G3) at Cycle 4): ALT, (G3, a DLT); also recorded: AST and neutropaenia (G2); also recorded: ALP (G1); also recorded: neutropenia (G3)
Adverse events (grade) (Patient 050 (202), oesophageal cancer, 900 mg/m^2, following Cycle 1 Day 1): ALT and fatigue, both G3
Best response to RECIST (Patient 050 (202), oesophageal cancer, 900 mg/m^2 weekly): Progressive Disease
Best response to RECIST (Patient 051 (203), anal cancer, 900 mg/m^2 weekly): Progressive Disease
Best response to RECIST [7]: Stable Disease
Duration of response to RECIST [7]: 5 months
Best response to RECIST (Patient 053 (205), colon cancer, 900 mg/m^2 weekly): Progressive Disease
Best response to RECIST (Patient 055 (207), ovarian cancer, 900, 825, then 625 mg/m^2 weekly): Stable Disease
CA125 level (Patient 055 (207), ovarian cancer, January 2015 (36 at baseline)): 24
Reduction in tumour volume from baseline (Patient 055 (207), ovarian cancer, end of Cycle 6 CT scan): 18%
Duration of response to RECIST (Patient 055 (207), ovarian cancer, ongoing, 900, 825, then 625 mg/m^2 weekly): ≥ 10 months
Adverse events (grade) (Patient 057 (209), ovarian cancer, 900 mg/m^2, Cycle 1 Day 15): anaemia and ascites both G3
Best response to RECIST [8]: Stable Disease
Duration of response to RECIST [8]: 5 months
Reduction in tumour volume from baseline (Patient 057 (209), ovarian cancer, end of Cycle 4 CT scan): 10%
Adverse events (grade) (Patient 058 (210), lung cancer, 825 mg/m^2, Cycle 1): G3 transaminitis (ALT), a DLT
Best response to RECIST [9]: Stable Disease
Duration of response to RECIST [9]: 4 months
Best response to RECIST [10]: Stable Disease
Duration of response to RECIST [10]: 7 months
Adverse events (grade) (Patient 059 (211), cervical cancer, thrombocytopenia in Cycle 1 at 825 mg/m^2, fatigue in Cycle 3 at 750 mg/m^2): thrombocytopenia (G3); also recorded: fatigue (G3)
Best response to RECIST (Patient 060 (212), pancreatic cancer, 825 mg/m^2 weekly): Progressive Disease
Adverse events (grade) (Patient 060 (212), pancreatic cancer, 825 mg/m^2 weekly, after Cycle 1): ALP, AST, ALT, all G3
Best response to RECIST [11]: Stable Disease
Duration of response to RECIST [11]: 3 months
Reduction in tumour volume (Patient 061 (213), colorectal cancer, end of Cycle 2 CT scan): 2%
Best response to RECIST [12]: Stable Disease
Duration of response to RECIST [12]: 3 months
Adverse events (grade) (Patient 063 (215), ovarian cancer, Cycle 3 at 750 mg/m^2): fatigue (G3)
Best response to RECIST (Patient 064 (216), trophoblastic cancer, 825 mg/m^2 weekly): Progressive Disease
Best response to RECIST (Patient 066 (218), colorectal cancer, 825, 750, then 625 mg/m^2 weekly): Stable Disease
Duration of response to RECIST (Patient 066 (218), colorectal cancer, ongoing, 825, 750, then 625 mg/m^2 weekly): ≥ 8 months
Reduction in tumour volume from baseline (Patient 066 (218), colorectal cancer, unscheduled CT scan on 30th December): 16%
Adverse events (grade) (Patient 067 (219), osteosarcoma, 825 mg/m^2 weekly, towards the end of each Cycle): neutropenia G2
Best response to RECIST (Patient 067 (219), osteosarcoma, 825 then 750 mg/m^2 weekly): Stable Disease
Increase (tumour) from baseline (Patient 067 (219), osteosarcoma, EOS CT scan): 1%
Duration of response to RECIST (Patient 067 (219), osteosarcoma, ongoing, 825 then 750 mg/m^2 weekly): ≥ 7 months
Best response to RECIST (Patient 068 (220), lung cancer, 825 mg/m^2 weekly): Progressive Disease
Best response to RECIST (Patient 069 (221), colorectal cancer, 825 reduced stepwise to 500 mg/m^2 weekly): Stable Disease
Adverse events (grade) (Patient 069 (221), colorectal cancer, Cycle 3 at 825 mg/m^2, after Cycle 4 D1 at 750 mg/m^2, Cycle 5 at 675 mg/m^2): neutropenia (G4); also recorded: neutropenia and leukopenia, G3; also recorded: neutropenia and leukopenia, G2
Response on PET scan (Patient 069 (221), colorectal cancer, PET scan on 30/10, 825 mg/m^2 weekly): Partial Response
Reduction in tumour volume from baseline (Patient 069 (221), colorectal cancer, end of C2 CT scan): 11%
Reduction in tumour volume from baseline (Patient 069 (221), colorectal cancer, end of C4 CT scan): 26%
Duration of response to RECIST (Patient 069 (221), colorectal cancer, ongoing, 825 reduced stepwise to 500 mg/m^2 weekly): ≥ 7 months
Best Overall Response: Partial Responses [13]: 5 (10%) patients (%)
Best Overall Response: Progressive Disease [13]: 11 (22%) patients (%)
Best Overall Response: Stable Disease [13]: 33 (67%) patients (%)
